≈ marks a conversion by molar mass, not a printed value. Where two headings read alike, the source gives them in different places.
Assays:
Format in all cases: cell-based
P. aeruginosa CDC-0110 = assay: Broth microdilution MIC in iron-depleted CAMHB (IDM); details: Pseudomonas aeruginosa, CDC0110, read-out: Minimum Inhibitory Concentration, P. aeruginosa CDC-0110
Method in brief: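 CLSI broth microdilution in iron-depleted cation-adjusted Mueller Hinton broth (Chelex-treated, Ca, Mg, Zn restored, pH 7.3), inoculum 2-8×10^5 CFU/mL, 2-fold compound dilutions. Pseudomonas plates incubated 16-20 h at 37 °C; MIC read visually as lowest concentration without growth.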

[1] = system: N. gonorrhoeae ATCC 49226; assay: Liquid broth MIC in Fastidious broth; details: Neisseria gonorrhoeae, ATCC49226, Fastidious broth
Method in brief: (§1)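 Colonies were swabbed from chocolate agar after 24 h growth and standardised by optical density at 600 nm. Compounds were serially diluted twofold in Fastidious broth, and bacteria added to give 5×10^5 CFU/mL. After about 24 h at 36 °C in 5% CO2, the lowest concentration allowing under 10% growth was taken as MIC.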

N. gonorrhoeae H041 = assay: Liquid broth MIC in Fastidious broth; details: Neisseria gonorrhoeae
Method in brief: (§2)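 MIC = lowest concentration giving <10% growth relative to untreated wells, scored by eye after ~24 h at 36 °C, 5% CO2. Strains carry mosaic PBP2; inoculum 5×10^5 CFU/mL in Fastidious broth with 2-fold serial compound dilutions.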

N. gonorrhoeae WHO K = assay: Liquid broth MIC in Fastidious broth; details: Neisseria gonorrhoeae
Method in brief: as §2

N. gonorrhoeae WHO G = assay: Liquid broth MIC in Fastidious broth; details: Neisseria gonorrhoeae, Fastidious broth
Method in brief: as §1

N. gonorrhoeae WHO L = assay: Liquid broth MIC in Fastidious broth; details: Neisseria gonorrhoeae, Fastidious broth
Method in brief: as §1

N. gonorrhoeae FA1090 = assay: Liquid broth MIC in Fastidious broth; details: Neisseria gonorrhoeae, Fastidious broth
Method in brief: as §1

N. gonorrhoeae WHO Z = assay: Liquid broth MIC in Fastidious broth; details: Neisseria gonorrhoeae
Method in brief: as §2

N. gonorrhoeae WHO Q = assay: Liquid broth MIC in Fastidious broth; details: Neisseria gonorrhoeae
Method in brief: as §2

[2] = N. gonorrhoeae strain ATCC 49226, read-out: Minimum Inhibitory Concentration, N. gonorrhoeae ATCC 49226
[3] = H041, read-out: Minimum Inhibitory Concentration, N. gonorrhoeae H041
[4] = read-out: Minimum Inhibitory Concentration, N. gonorrhoeae WHO K
[5] = N. gonorrhoeae strain WHO G, read-out: Minimum Inhibitory Concentration, N. gonorrhoeae WHO G
[6] = N. gonorrhoeae strain WHO L, read-out: Minimum Inhibitory Concentration, N. gonorrhoeae WHO L
[7] = N. gonorrhoeae strain FA1090, read-out: Minimum Inhibitory Concentration, N. gonorrhoeae FA1090
[8] = N. gonorrhoeae ATCC 49226, read-out: Minimum Inhibitory Concentration, ATCC 49226
[9] = H041, read-out: Minimum Inhibitory Concentration, H041
[10] = read-out: Minimum Inhibitory Concentration, WHO K
[11] = read-out: Minimum Inhibitory Concentration, WHO Z
[12] = read-out: Minimum Inhibitory Concentration, WHO Q
[13] = N. gonorrhoeae WHO G, read-out: Minimum Inhibitory Concentration, WHO G
[14] = N. gonorrhoeae WHO L, read-out: Minimum Inhibitory Concentration, WHO L
[15] = N. gonorrhoeae FA1090, read-out: Minimum Inhibitory Concentration, FA1090
[16] = read-out: Minimum Inhibitory Concentration, N. gonorrhoeae WHO Z
[17] = read-out: Minimum Inhibitory Concentration, N. gonorrhoeae WHO Q

| SMILES | MIC (P. aeruginosa CDC-0110) [µg/mL] | MIC [1, 2] [µg/mL] | MIC (N. gonorrhoeae H041; [3]) [µg/mL] | MIC (N. gonorrhoeae WHO K; [4]) [µg/mL] | MIC (N. gonorrhoeae WHO G; [5]) [µg/mL] | MIC (N. gonorrhoeae WHO L; [6]) [µg/mL] | MIC (N. gonorrhoeae FA1090; [7]) [µg/mL] | MIC [1, 8] [µg/mL] | MIC (N. gonorrhoeae H041; [9]) [µg/mL] | MIC (N. gonorrhoeae WHO K; [10]) [µg/mL] | MIC (N. gonorrhoeae WHO Z; [11]) [µg/mL] | MIC (N. gonorrhoeae WHO Q; [12]) [µg/mL] | MIC (N. gonorrhoeae WHO G; [13]) [µg/mL] | MIC (N. gonorrhoeae WHO L; [14]) [µg/mL] | MIC (N. gonorrhoeae FA1090; [15]) [µg/mL] | MIC (N. gonorrhoeae WHO Z; [16]) [µg/mL] | MIC (N. gonorrhoeae WHO Q; [17]) [µg/mL] |
| --- | --- | --- | --- | --- | --- | --- | --- | --- | --- | --- | --- | --- | --- | --- | --- | --- | --- |
| O=C(NCCCN1CCN(C(=O)NC(C(=O)N[C@H]2Cc3ccc(F)c(C(=O)O)c3OB2O)c2ncc(O)cc2F)C(=O)C1=O)c1ccc(O)c(O)c1Cl (stereo partly drawn) [Example 3, (3R)-3-(2-(4-(3-(2-chloro-3,4-dihydroxybenzamido)propyl)-2,3-dioxopiperazine-1-carboxamido)-2-(3-fluoro-5-hydroxypyridin-2-yl)acetamido)-7-fluoro-2-hydroxy-3,4-dihydro-2H-benzo[e][1,2]oxaborinine-8-carboxylic acid] | 2 to 4 (≈ 2.63 to 5.26 µM) |  |  |  |  |  |  |  |  |  |  |  |  |  |  |  |  |
| Nc1nc(/C(=N/OC[C@H](NC(=O)c2ccc(O)c(O)c2Cl)C(=O)O)C(=O)N[C@H]2Cc3cccc(C(=O)O)c3OB2O)cs1 [Example 6, (R)-3-((Z)-2-(2-aminothiazol-4-yl)-2-(((S)-2-carboxy-2-(2-chloro-3,4-dihydroxybenzamido)ethoxy)imino)acetamido)-2-hydroxy-3,4-dihydro-2H-benzo[e][1,2]oxaborinine-8-carboxylic acid] | 2 to 4 (≈ 3.16 to 6.31 µM) | > 64 | > 64 | > 64 | 16 to 32 (≈ 25.2 to 50.5 µM) | > 64 | 16 to 32 (≈ 25.2 to 50.5 µM) |  |  |  |  |  |  |  |  |  |  |
| O=C(NCCN1CCN(C(=O)NC(C(=O)N[C@H]2Cc3ccc(F)c(C(=O)O)c3OB2O)c2ncc(O)cc2F)C(=O)C1=O)c1c(F)cc(O)c(O)c1Cl (stereo partly drawn) [Example 5, (3R)-3-(2-(4-(2-(2-chloro-6-fluoro-3,4-dihydroxybenzamido)ethyl)-2,3-dioxopiperazine-1-carboxamido)-2-(3-fluoro-5-hydroxypyridin-2-yl)acetamido)-7-fluoro-2-hydroxy-3,4-dihydro-2H-benzo[e][1,2]oxaborinine-8-carboxylic acid] | 0.25 (≈ 0.327 µM) | > 64 | > 64 | > 64 | 16 to 32 (≈ 20.9 to 41.8 µM) | > 64 | 4 to 8 (≈ 5.23 to 10.5 µM) |  |  |  |  |  |  |  |  |  |  |
| NCCN1CCN(C(=O)N[C@H](C(=O)N[C@H]2Cc3cccc(C(=O)O)c3OB2O)c2c(F)cccc2F)C(=O)C1=O (single isomer, unassigned) [Example 204] |  |  |  |  |  |  |  | > 64 | > 64 | > 64 | > 64 | > 64 | > 64 | > 64 | 16 to 32 (≈ 28.6 to 57.2 µM) |  |  |
| NCCN1CCN(C(=O)N[C@@H](C(=O)N[C@H]2Cc3cccc(C(=O)O)c3OB2O)c2c(F)cccc2Cl)C(=O)C1=O (single isomer, unassigned) [Example 205] |  |  |  |  |  |  |  | > 64 | > 64 | > 64 | > 64 | > 64 | > 64 | > 64 | 16 to 32 (≈ 27.8 to 55.6 µM) |  |  |
| NCCN1CCN(C(=O)N[C@@H](C(=O)N[C@H]2Cc3ccc(F)c(C(=O)O)c3OB2O)c2c(F)c(F)c(O)c(O)c2Cl)C(=O)C1=O [Example 226, (R)-3-((R)-2-(4-(2-aminoethyl)-2,3-dioxopiperazine-1-carboxamido)-2-(2-chloro-5,6-difluoro-3,4-dihydroxyphenyl)acetamido)-7-fluoro-2-hydroxy-3,4-dihydro-2H-benzo[e][1,2]oxaborinine-8-carboxylic acid] | 0.5 to 1 (≈ 0.777 to 1.55 µM) |  |  |  |  |  |  |  |  |  |  |  |  |  |  |  |  |
| NCCN1CCN(C(=O)N[C@@H](C(=O)N[C@H]2Cc3cccc(C(=O)O)c3OB2O)c2ccc(O)c([N+](=O)[O-])c2)C(=O)C1=O (single isomer, unassigned) [Example 199] |  | 16 to 32 (≈ 27.4 to 54.8 µM) | > 64 | > 64 | 16 to 32 (≈ 27.4 to 54.8 µM) | > 64 | 1 to 2 (≈ 1.71 to 3.42 µM) |  |  |  |  |  |  |  |  | > 64 | > 64 |
| CCN1CCN(C(=O)NC(C(=O)N[C@H]2Cc3cccc(C(=O)O)c3OB2O)c2cc(C#N)c(OC)cc2F)C(=O)C1=O (stereo partly drawn) [Example 192, (3R)-3-(2-(5-cyano-2-fluoro-4-methoxyphenyl)-2-(4-ethyl-2,3-dioxopiperazine-1-carboxamido)acetamido)-2-hydroxy-3,4-dihydro-2H-benzo[e][1,2]oxaborinine-8-carboxylic acid] |  | > 64 | > 64 | > 64 | > 64 | > 64 | 4 to 8 (≈ 6.88 to 13.8 µM) |  |  |  |  |  |  |  |  | > 64 | > 64 |
| CCN1CCN(C(=O)NC(C(=O)N[C@H]2Cc3cccc(C(=O)O)c3OB2O)c2ccc(O)c(Cl)c2F)C(=O)C1=O (stereo partly drawn) [Example 185, (3R)-3-(2-(3-chloro-2-fluoro-4-hydroxyphenyl)-2-(4-ethyl-2,3-dioxopiperazine-1-carboxamido)acetamido)-2-hydroxy-3,4-dihydro-2H-benzo[e][1,2]oxaborinine-8-carboxylic acid] |  | 4 to 8 (≈ 6.94 to 13.9 µM) | 16 to 32 (≈ 27.7 to 55.5 µM) | 16 to 32 (≈ 27.7 to 55.5 µM) | 4 to 8 (≈ 6.94 to 13.9 µM) | 16 to 32 (≈ 27.7 to 55.5 µM) | < 0.125 |  |  |  |  |  |  |  |  | 4 to 8 (≈ 6.94 to 13.9 µM) | 16 to 32 (≈ 27.7 to 55.5 µM) |
| NCCCN1CCN(C(=O)NC(C(=O)N[C@H]2Cc3cccc(C(=O)O)c3OB2O)c2c(F)cc(O)cc2F)C(=O)C1=O (stereo partly drawn) [Example 183, (3R)-3-(2-(4-(3-aminopropyl)-2,3-dioxopiperazine-1-carboxamido)-2-(2,6-difluoro-4-hydroxyphenyl)acetamido)-2-hydroxy-3,4-dihydro-2H-benzo[e][1,2]oxaborinine-8-carboxylic acid] |  | 16 to 32 (≈ 27.2 to 54.3 µM) | > 64 | > 64 | 16 to 32 (≈ 27.2 to 54.3 µM) | > 64 | 1 to 2 (≈ 1.7 to 3.39 µM) |  |  |  |  |  |  |  |  | > 64 | > 64 |
| NCCN1CCN(C(=O)N[C@H](C(=O)N[C@H]2Cc3cccc(C(=O)O)c3OB2O)c2ccc(O)c([N+](=O)[O-])c2)C(=O)C1=O (single isomer, unassigned) [Example 200] |  | > 64 | > 64 | > 64 | > 64 | > 64 | 4 to 8 (≈ 6.85 to 13.7 µM) |  |  |  |  |  |  |  |  | > 64 | > 64 |
| CCN1CCN(C(=O)NC(C(=O)N[C@H]2Cc3cccc(C(=O)O)c3OB2O)c2ccc(C(=O)O)c(Cl)c2Cl)C(=O)C1=O (stereo partly drawn) [Example 201, (3R)-3-(2-(4-carboxy-2,3-dichlorophenyl)-2-(4-ethyl-2,3-dioxopiperazine-1-carboxamido)acetamido)-2-hydroxy-3,4-dihydro-2H-benzo[e][1,2]oxaborinine-8-carboxylic acid] |  |  |  |  |  |  |  | 4 to 8 (≈ 6.44 to 12.9 µM) | > 64 | 16 to 32 (≈ 25.8 to 51.5 µM) | 16 to 32 (≈ 25.8 to 51.5 µM) | 16 to 32 (≈ 25.8 to 51.5 µM) | 4 to 8 (≈ 6.44 to 12.9 µM) | > 64 | 1 to 2 (≈ 1.61 to 3.22 µM) |  |  |
| CCN1CCN(C(=O)N[C@@H](C(=O)N[C@H]2Cc3cccc(C(=O)O)c3OB2O)c2ccc(C(=O)O)c(F)c2Cl)C(=O)C1=O (single isomer, unassigned) [Example 203] |  |  |  |  |  |  |  | 4 to 8 (≈ 6.61 to 13.2 µM) | 16 to 32 (≈ 26.5 to 52.9 µM) | 16 to 32 (≈ 26.5 to 52.9 µM) | 4 to 8 (≈ 6.61 to 13.2 µM) | 4 to 8 (≈ 6.61 to 13.2 µM) | 4 to 8 (≈ 6.61 to 13.2 µM) | > 64 | 0.25 to 0.5 (≈ 0.413 to 0.827 µM) |  |  |
| CCN1CCN(C(=O)N[C@@H](C(=O)N[C@H]2Cc3cccc(C(=O)O)c3OB2O)c2c(O)cc(O)cc2F)C(=O)C1=O (single isomer, unassigned) [Example 182] |  | 4 to 8 (≈ 7.16 to 14.3 µM) | > 64 | 16 to 32 (≈ 28.7 to 57.3 µM) | 1 to 2 (≈ 1.79 to 3.58 µM) | 16 to 32 (≈ 28.7 to 57.3 µM) | < 0.125 |  |  |  |  |  |  |  |  | 16 to 32 (≈ 28.7 to 57.3 µM) | 16 to 32 (≈ 28.7 to 57.3 µM) |

Reference: patent publication US20230114728A1 (Venatorx Pharmaceuticals, Inc., priority 2019, published 2023)
